Laboratory results: patent publication US20230330254A1 (Regeneron Pharmaceuticals, Inc., priority 2022, published 2023)
pEC50: −log10 of the molar value.

What was measured:
[1] = test system: Salmonella typhimurium TA98 and TA100; experiment: Mini-Ames assay; assay type: cell-based
Procedure: The objective of this Mini-Ames study was to evaluate the test article LP11, for its ability to induce reverse mutations in the genome of strains of Salmonella typhimurium TA98 and TA100 in the presence and absence of metabolic activation (S9 mixture).
The Mini-Ames assay was conducted for the test article in the presence and absence of the S9 mixture, concurrently with the negative/solvent control (DMSO) using six wells and positive controls (2 μg/well TA98 alone, 0.2 μg/well TA100 alone or 0.4 μg/well TA98+TA100 in the presence of S9) using three wells. The tested dose levels for the test article, in the presence and absence of S9 mix, were 1000, 400, 160, 64, 25, 10, 4, and 1.5 μg per well, with each dose tested in triplicate. The study was conducted using fresh cultures of the bacterial strains and fresh test article formulations.

[2] = target: T1, human gastric inhibitory polypeptide receptor (GIPR) (Homo sapiens, UniProt P48546); experiment: CRE-luciferase reporter assay, HEK293/Myc-hGIPR/Cre-Luc (Example 9); assay type: cell-based; set-up: Myc; expressed in transfected cells; details: Table 5C
T1 sequence (P48546 22-466): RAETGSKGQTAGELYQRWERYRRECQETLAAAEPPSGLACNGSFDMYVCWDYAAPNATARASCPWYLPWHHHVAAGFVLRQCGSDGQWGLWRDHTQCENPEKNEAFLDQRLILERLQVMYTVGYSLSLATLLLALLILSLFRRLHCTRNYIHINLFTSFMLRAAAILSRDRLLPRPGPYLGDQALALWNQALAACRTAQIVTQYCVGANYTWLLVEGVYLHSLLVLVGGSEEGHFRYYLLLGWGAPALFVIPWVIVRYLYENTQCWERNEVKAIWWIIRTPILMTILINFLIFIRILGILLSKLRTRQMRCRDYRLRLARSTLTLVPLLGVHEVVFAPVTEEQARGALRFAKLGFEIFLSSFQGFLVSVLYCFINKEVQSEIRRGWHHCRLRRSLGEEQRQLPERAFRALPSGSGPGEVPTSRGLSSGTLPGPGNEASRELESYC
Procedure: (§1) To test the activity of GLP1R agonist payloads and GLP1R agonist linker-payloads (LPs) in vitro, a cell-based cAMP responsive luciferase reporter assay was developed.
(§2) Cells were incubated overnight at 37° C. in 5% CO2. […] Plates were incubated for 5.5 h at 37° C. in 5% CO2. For end-point measurement, 100 μL/well of One-Glo reagent (Promega, #E6051) was added and plates were kept at room temperature for 5-10 minutes. Luciferase activity was measured on Envision Multilabel Plate Reader (Perkin Elmer) in Luminescent mode. The relative light units (RLU) values were obtained and the results were analyzed using nonlinear regression with GraphPad Prism software (GraphPad).

[3] = target: T2, human glucagon-like peptide 2 receptor (GLP2R) (Homo sapiens, UniProt O95838); experiment: CRE-luciferase reporter assay, HEK293/Myc-hGLP2R/Cre-Luc (Example 9); assay type: cell-based; details: Table 5C
T2 construct: full-length human GLP1R, cynomolgus GLP1R, human glucagon receptor (GCGR), human glucagon-like peptide 2 receptor (GLP2R); expressed in transfected cells; host or cells: HEK293/CRE-Luc
T2 sequence (O95838 1-553): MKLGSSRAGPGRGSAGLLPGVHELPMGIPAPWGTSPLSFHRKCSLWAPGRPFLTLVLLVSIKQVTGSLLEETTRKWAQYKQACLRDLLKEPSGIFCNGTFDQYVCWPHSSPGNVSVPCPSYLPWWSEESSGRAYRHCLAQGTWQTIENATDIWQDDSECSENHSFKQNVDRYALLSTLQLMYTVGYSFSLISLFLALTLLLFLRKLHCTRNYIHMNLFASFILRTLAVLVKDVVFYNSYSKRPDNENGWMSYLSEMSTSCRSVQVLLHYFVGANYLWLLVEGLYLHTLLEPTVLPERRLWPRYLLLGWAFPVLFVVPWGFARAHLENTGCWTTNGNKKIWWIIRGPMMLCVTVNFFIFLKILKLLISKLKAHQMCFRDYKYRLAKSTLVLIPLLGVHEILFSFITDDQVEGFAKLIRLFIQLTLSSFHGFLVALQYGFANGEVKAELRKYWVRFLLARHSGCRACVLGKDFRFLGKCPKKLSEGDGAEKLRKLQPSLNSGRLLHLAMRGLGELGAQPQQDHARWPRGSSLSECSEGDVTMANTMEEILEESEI
Procedure: as §1, §2

[4] = Liver microsome stability; assay type: in vitro ADME, human
Procedure: To assess the in vitro ADME properties of the LP, microsomal stability assay was performed to determine intrinsic clearance, and plasma protein binding assay was performed to understand the distribution potential.

[5] = target: T3, human glucagon receptor (GCGR) (Homo sapiens, UniProt P47871); experiment: CRE-luciferase reporter assay, HEK293/Myc-hGCGR/Cre-Luc (Example 9); assay type: cell-based; details: Table 5C
T3 construct: full-length human GLP1R, cynomolgus GLP1R, human glucagon receptor (GCGR); expressed in transfected cells; host or cells: HEK293/CRE-Luc
Procedure: as §1, §2

[6] = target: human GLP1R (Homo sapiens, UniProt P43220); experiment: b-arrestin 2 recruitment assay, PathHunter CHO/b-arrestin 2/hGLP1R cells; assay type: cell-based; details: read-out: CHO/b-arrestin 2/hGLP1R Emax (% GLP-1)
Procedure: The b-arrestin 2 recruitment assay was performed following manufacter's instructions (Eurofins DiscoverX, #93-0300E2CP0M), with minor modifications. […] Serial dilutions of free payload and LP were performed in 100% DMSO, followed by 1:100 dilution in assay media. Test articles were added to cells (1:5 dilution) with the last well in each serial dilution series serving as a blank control containing only assay media for antibodies and ATLs or assay media with 0.2% DMSO for payload and LP. After a 90-minute incubation at 37° C., PathHunter Detection Reagent (Eurofins DiscoverX, #93-0300E2CP0M) was added to the wells followed by a 1-hour incubation at room temperature. RLUs were measured on EnVision Plate Reader (Perkin Elmer).
EC50 values for luminescence assays were determined using a four-parameter logistic equation over a 12-point dose response curve (GraphPad Prism).

[7] = target: T3, human glucagon receptor (GCGR); experiment: Luciferase reporter assay, HEK293/CRE-Luc/hGCGR (Example 17); assay type: cell-based; details: Table 28; CRE-dependent luciferase reporter activity

T3 sequence (P47871 26-477): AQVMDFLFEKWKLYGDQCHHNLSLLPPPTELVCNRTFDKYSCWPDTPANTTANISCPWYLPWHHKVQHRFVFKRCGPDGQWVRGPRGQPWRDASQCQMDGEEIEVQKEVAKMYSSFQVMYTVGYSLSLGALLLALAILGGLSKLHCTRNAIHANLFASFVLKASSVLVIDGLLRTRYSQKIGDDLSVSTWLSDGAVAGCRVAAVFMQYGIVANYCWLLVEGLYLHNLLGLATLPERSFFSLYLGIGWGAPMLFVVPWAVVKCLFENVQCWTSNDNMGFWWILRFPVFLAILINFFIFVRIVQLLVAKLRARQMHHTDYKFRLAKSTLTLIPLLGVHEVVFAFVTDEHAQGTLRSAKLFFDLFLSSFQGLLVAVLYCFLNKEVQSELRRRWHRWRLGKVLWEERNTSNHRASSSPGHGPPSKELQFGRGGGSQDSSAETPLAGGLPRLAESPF
Chain of human GLP1R (P43220 24-463): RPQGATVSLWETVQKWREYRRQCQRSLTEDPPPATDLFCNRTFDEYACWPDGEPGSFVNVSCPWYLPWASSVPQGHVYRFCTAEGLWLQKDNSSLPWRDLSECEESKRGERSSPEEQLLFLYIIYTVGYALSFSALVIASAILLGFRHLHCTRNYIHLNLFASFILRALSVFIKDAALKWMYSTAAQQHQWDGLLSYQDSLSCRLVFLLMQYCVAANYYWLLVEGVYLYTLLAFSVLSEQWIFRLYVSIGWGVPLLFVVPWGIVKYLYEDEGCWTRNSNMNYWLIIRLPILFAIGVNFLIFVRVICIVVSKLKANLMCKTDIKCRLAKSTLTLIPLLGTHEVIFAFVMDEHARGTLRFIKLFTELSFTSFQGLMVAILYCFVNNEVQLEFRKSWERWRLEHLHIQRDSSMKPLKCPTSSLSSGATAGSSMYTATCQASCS

Structure (SMILES): CCc1cc(OCCCCn2cc(COCCOCCOCCOCCOCCOCCOCCOCCN)nn2)ccc1-c1ccc(C[C@H](NC(=O)[C@H](CC(=O)O)NC(=O)[C@H](CO)NC(=O)[C@@H](NC(=O)C(C)(Cc2ccccc2F)NC(=O)[C@@H](NC(=O)CNC(=O)[C@H](Cc2nn[nH]n2)NC(=O)C(C)(C)C(=O)NCCc2cnc[nH]2)[C@@H](C)O)[C@@H](C)O)C(=O)N[C@@H](CCCc2cc(C)cc(C)c2)C(N)=O)cc1 (some centres unmarked) [LP11, NH2-PEG8-triazole-P8]
- fold increase in mean number of revertant colonies vs negative/solvent control [1]: ≤ 2.0 fold
- mutagenicity (Mini-Ames conclusion) ([1]; TA98 and TA100, with and without S9): negative for mutagenicity
- Ames (TA98 and TA100) in the presence and absence of S9 ([1]; Table 5C): Negative for mutagenicity
- cytotoxicity in Mini-Ames ([1]; any dose level (1.5-1000 μg per well), with or without S9 mix): no obvious cytotoxicity
- precipitates in Mini-Ames (naked eye after incubation) ([1]; any dose level, with or without S9 mix): No obvious precipitates
- GIPR EC50 (nM) [2]: Completely inactive
- GLP2R EC50 (nM) [3]: Completely inactive
- CLint(mic) ([4]; Table 7): <9.6 µL/min/mg
- CLint scaled ([4]; human, liver microsomes, Table 5C, read-out: Human Liver microsome CLint(liver)): < 8.6 mL/min/kg
- microsomal CLint ([4]; human, liver microsomes, Table 5C, read-out: Human Liver microsome CLint(mic)): < 9.6 µL/min/mg
- half-life ([4]; human, liver microsomes, Table 5C, read-out: Human Liver microsome T1/2): > 2.42 h
- GCGR EC50 (nM) [5]: Completely inactive

Structure (SMILES): CCc1cc(OCCCCn2cc(COCCOCCOCCOCCOCCOCCOCCOCCN)nn2)ccc1-c1ccc(C[C@H](NC(=O)[C@H](CC(=O)O)NC(=O)[C@H](CO)NC(=O)[C@@H](NC(=O)[C@](C)(Cc2ccccc2F)NC(=O)[C@@H](NC(=O)CNC(=O)[C@H](Cc2nn[nH]n2)NC(=O)C(C)(C)C(=O)NCCc2cnc[nH]2)[C@@H](C)O)[C@@H](C)O)C(=O)N[C@@H](CCCc2cc(C)cc(C)c2)C(N)=O)cc1 [M3190]
- Emax [6]: 108%
- pEC50 [7]: < 6.70
